Reference: the NIST ThermoML archive (doi:10.1021/je300347z)

Experiments:
[1] = Liquid; for mass density: 293.2 K, 101.33 kPa, Vibrating tube method
[2] = refractive index (Na D-line) (dimensionless); details: 293.2 K; 101.33 kPa; Liquid; Standard Abbe refractometry

CC(C)O [propan-2-ol]
Details | mass density [kg/m3] | refractive index
[1] | 785.42 | –
[2] | – | 1.3771

[1]
Details | vapor or sublimation pressure [kPa]
307.1 K | 10
319.9 K | 20
328 K | 30
334 K | 40
334.1 K | 40
338.8 K | 50
342.9 K | 60
346.5 K | 70
349.7 K | 80
352.5 K | 90
355 K | 100

CCO [ethanol]
Details | mass density [kg/m3] | refractive index
[1] | 789.91 | –
[2] | – | 1.3612

[1]
Details | vapor or sublimation pressure [kPa]
302.4 K | 10
315.4 K | 20
323.6 K | 30
329.7 K | 40
330 K | 40
334.7 K | 50
338.8 K | 60
342.4 K | 70
345.6 K | 80
348.5 K | 90
351.1 K | 100

CCCCO [butan-1-ol]
Details | mass density [kg/m3] | refractive index
[1] | 810.28 | –
[2] | – | 1.3993

[1]
Details | vapor or sublimation pressure [kPa]
337.2 K | 10
351.1 K | 20
360 K | 30
366.7 K | 40
372.1 K | 50
376.6 K | 60
380.5 K | 70
384 K | 80
387.2 K | 90
390.1 K | 100

CCCCCCO [hexan-1-ol]
Details | mass density [kg/m3] | refractive index
[1] | 816.31 | –
[2] | – | 1.4207

[1]
Details | vapor or sublimation pressure [kPa]
369.8 K | 10
385.7 K | 20
395.7 K | 30
403.2 K | 40
403.4 K | 40
409.3 K | 50
414.5 K | 60
419 K | 70
423 K | 80
426.5 K | 90
429.6 K | 99.7

C=C(C)[C@H]1CC=C(C)CC1 [(R)-1-methyl-4-(1-methylethenyl)cyclohexene]
Details | mass density [kg/m3] | refractive index
[1] | 814.83 | –
[2] | – | 1.473

[1]
Details | vapor or sublimation pressure [kPa]
375.5 K | 10
394.5 K | 20
403.2 K | 27.48
406.5 K | 30
415.7 K | 40
415.8 K | 40
423.2 K | 49.74
423.4 K | 50
429.8 K | 60
435.5 K | 70
440.5 K | 80
445 K | 90
450 K | 100

CCCCCO [pentan-1-ol]
Details | mass density [kg/m3] | refractive index
[1] | 814.16 | –
[2] | – | 1.4097

[1]
Details | vapor or sublimation pressure [kPa]
354 K | 10
368.7 K | 20
378 K | 30
384.7 K | 40
385.3 K | 40
391 K | 50
395.9 K | 60
400.2 K | 70
403.9 K | 80
407.3 K | 90
410.4 K | 100

CCCO [propan-1-ol]
Details | mass density [kg/m3] | refractive index
[1] | 801.33 | –
[2] | – | 1.3851

[1]
Details | vapor or sublimation pressure [kPa]
319.6 K | 10
332.8 K | 20
341.3 K | 30
347.7 K | 40
352.7 K | 50
357.1 K | 60
360.8 K | 70
364.1 K | 80
367.1 K | 90
369.8 K | 100
